In the NIST ThermoML archive (doi:10.1016/j.jct.2011.06.024):
Numbers after ± are expanded uncertainties.

Experiment: mn = molality of the nth substance listed, in mol/kg
Conditions: 101 kPa, Liquid, Capillary tube (Ostwald / Ubbelohde) method

[Cl-].[Cl-].[Mg+2] [magnesium chloride] + O
viscosity (303.15 K, m1 = 0.003022): 0.8039 ± 0.017 mPa·s
viscosity (303.15 K, m1 = 0.004): 0.8323 ± 0.017 mPa·s
viscosity (303.15 K, m1 = 0.005): 0.8483 ± 0.018 mPa·s
viscosity (303.15 K, m1 = 0.007): 0.8693 ± 0.018 mPa·s
viscosity (303.15 K, m1 = 0.007995): 0.8885 ± 0.018 mPa·s
viscosity (303.15 K, m1 = 0.008994): 0.9112 ± 0.019 mPa·s
viscosity (308.15 K, m1 = 0.003022): 0.7343 ± 0.015 mPa·s
viscosity (308.15 K, m1 = 0.004): 0.7545 ± 0.016 mPa·s
viscosity (308.15 K, m1 = 0.005): 0.7723 ± 0.016 mPa·s
viscosity (308.15 K, m1 = 0.007): 0.7896 ± 0.017 mPa·s
viscosity (308.15 K, m1 = 0.007995): 0.8071 ± 0.017 mPa·s
viscosity (308.15 K, m1 = 0.008994): 0.8198 ± 0.017 mPa·s
viscosity (313.15 K, m1 = 0.003022): 0.6675 ± 0.014 mPa·s
viscosity (313.15 K, m1 = 0.004): 0.6865 ± 0.014 mPa·s
viscosity (313.15 K, m1 = 0.005): 0.7031 ± 0.015 mPa·s
viscosity (313.15 K, m1 = 0.007): 0.7195 ± 0.015 mPa·s
viscosity (313.15 K, m1 = 0.007995): 0.7366 ± 0.015 mPa·s
viscosity (313.15 K, m1 = 0.008994): 0.7601 ± 0.016 mPa·s
viscosity (318.15 K, m1 = 0.003022): 0.6213 ± 0.013 mPa·s
viscosity (318.15 K, m1 = 0.004): 0.6301 ± 0.013 mPa·s
viscosity (318.15 K, m1 = 0.005): 0.6466 ± 0.013 mPa·s
viscosity (318.15 K, m1 = 0.007): 0.6648 ± 0.014 mPa·s
viscosity (318.15 K, m1 = 0.007995): 0.6804 ± 0.014 mPa·s
viscosity (318.15 K, m1 = 0.008994): 0.6989 ± 0.015 mPa·s
viscosity (323.15 K, m1 = 0.003022): 0.5775 ± 0.012 mPa·s
viscosity (323.15 K, m1 = 0.004): 0.5975 ± 0.013 mPa·s
viscosity (323.15 K, m1 = 0.005): 0.6196 ± 0.013 mPa·s
viscosity (323.15 K, m1 = 0.007): 0.6244 ± 0.013 mPa·s
viscosity (323.15 K, m1 = 0.007995): 0.6481 ± 0.013 mPa·s
viscosity (323.15 K, m1 = 0.008994): 0.6697 ± 0.014 mPa·s

CCCCCCCCCCCCOS(=O)(=O)[O-].[Na+] [sodium dodecyl sulfate] + O
viscosity (303.15 K, m1 = 0.007): 0.8017 ± 0.017 mPa·s
viscosity (303.15 K, m1 = 0.01): 0.8025 ± 0.017 mPa·s
viscosity (308.15 K, m1 = 0.007): 0.7228 ± 0.015 mPa·s
viscosity (308.15 K, m1 = 0.01): 0.7285 ± 0.015 mPa·s
viscosity (313.15 K, m1 = 0.007): 0.6582 ± 0.014 mPa·s
viscosity (313.15 K, m1 = 0.01): 0.6577 ± 0.014 mPa·s
viscosity (318.15 K, m1 = 0.007): 0.6009 ± 0.013 mPa·s
viscosity (318.15 K, m1 = 0.01): 0.6026 ± 0.013 mPa·s
viscosity (323.15 K, m1 = 0.007): 0.5513 ± 0.012 mPa·s
viscosity (323.15 K, m1 = 0.01): 0.5575 ± 0.012 mPa·s

O=[N+]([O-])[O-].O=[N+]([O-])[O-].[Mg+2] [magnesium nitrate] + O
viscosity (303.15 K, m1 = 0.003029): 0.8036 ± 0.017 mPa·s
viscosity (303.15 K, m1 = 0.004005): 0.8293 ± 0.017 mPa·s
viscosity (303.15 K, m1 = 0.005059): 0.8454 ± 0.018 mPa·s
viscosity (303.15 K, m1 = 0.007003): 0.8685 ± 0.018 mPa·s
viscosity (303.15 K, m1 = 0.008141): 0.8903 ± 0.018 mPa·s
viscosity (303.15 K, m1 = 0.009263): 0.9014 ± 0.019 mPa·s
viscosity (308.15 K, m1 = 0.003029): 0.7327 ± 0.015 mPa·s
viscosity (308.15 K, m1 = 0.004005): 0.751 ± 0.016 mPa·s
viscosity (308.15 K, m1 = 0.005059): 0.7688 ± 0.016 mPa·s
viscosity (308.15 K, m1 = 0.007003): 0.7895 ± 0.017 mPa·s
viscosity (308.15 K, m1 = 0.008141): 0.8097 ± 0.017 mPa·s
viscosity (308.15 K, m1 = 0.009263): 0.8156 ± 0.017 mPa·s
viscosity (313.15 K, m1 = 0.003029): 0.6665 ± 0.014 mPa·s
viscosity (313.15 K, m1 = 0.004005): 0.6847 ± 0.014 mPa·s
viscosity (313.15 K, m1 = 0.005059): 0.7021 ± 0.015 mPa·s
viscosity (313.15 K, m1 = 0.007003): 0.721 ± 0.015 mPa·s
viscosity (313.15 K, m1 = 0.008141): 0.7356 ± 0.015 mPa·s
viscosity (313.15 K, m1 = 0.009263): 0.7458 ± 0.016 mPa·s
viscosity (318.15 K, m1 = 0.003029): 0.6195 ± 0.013 mPa·s
viscosity (318.15 K, m1 = 0.004005): 0.6272 ± 0.013 mPa·s
viscosity (318.15 K, m1 = 0.005059): 0.6449 ± 0.013 mPa·s
viscosity (318.15 K, m1 = 0.007003): 0.6635 ± 0.014 mPa·s
viscosity (318.15 K, m1 = 0.008141): 0.6813 ± 0.014 mPa·s
viscosity (318.15 K, m1 = 0.009263): 0.6958 ± 0.015 mPa·s
viscosity (323.15 K, m1 = 0.003029): 0.5575 ± 0.012 mPa·s
viscosity (323.15 K, m1 = 0.004005): 0.5773 ± 0.012 mPa·s
viscosity (323.15 K, m1 = 0.005059): 0.5927 ± 0.012 mPa·s
viscosity (323.15 K, m1 = 0.007003): 0.6106 ± 0.013 mPa·s
viscosity (323.15 K, m1 = 0.008141): 0.6176 ± 0.013 mPa·s
viscosity (323.15 K, m1 = 0.009263): 0.6305 ± 0.013 mPa·s
